In patent publication US11633512B2, “Method for disinfecting soils or other agricultural growing media” (Agrozono, S.L., priority 2017, dated 2023):
Read-outs that look alike come from different tables or passages of the source.

Columns and labels:
[1] = tested on: Sclerotinia sp, Fusarium oxysporum and Phytophthora citrophthora; test: Disinfection of infected soil in containers: survival of phytopathogenic fungi; assay type: in vivo; set-up: reduction of pathogenic fungi: concentration or dose not given beside the values
[2] = tested on: Erwinia amylovora and Clavibacter michiganensis; test: Disinfection of infected soil in containers: survival of phytopathogenic bacteria; assay type: in vivo
Protocol: In order to achieve the aforementioned objectives, soil without crops was infected with the phytopathogenic species Sclerotinia, Fusarium, Erwinia, Phytophthora and Clavibacter. The assay was performed in Lorca (Murcia). It took place in open air in bins with soil without crops and wherein tomatoes, peppers and melons had been grown previously. After performing the first application of the method of the present invention, tomato plants, Lycopersicum esculentum, were transplanted, the response of the plants to the treatments being evaluated.
The microbiological content of the soil was evaluated at different depths: 20, 40 and 60 cm., before and after the applications.
Containers were installed with a known volume of 1000 l (1×1×1 m) in field. Moreover, a medium proceeding from a greenhouse with melons, peppers and tomatoes having been grown there previously was selected and homogenised. Subsequently, the containers were filled with this medium.
In the laboratory, the following species were cultivated in vitro: • Phytopathogenic bacteria: Erwinia amylovora and Clavibacter michiganensis • Phytopathogenic fungi: Sclerotinia sp, Fusarium oxysporum and Phytophthora citrophthora
Each microorganism was grown in liquid medium until reaching a concentration of 10^8 ufc/ml. For each of the bins, 1 litre of microbial solution was prepared.
Then the pathogenic microorganisms were inoculated in the medium, periodic irrigations were performed until reaching the capacity of the medium, samples were taken at different depths (20 cm, 40 cm and 60 cm) and the phytopathogens were counted in said samples, in order to verify the permanence and presence of phytopathogens in the soil.
A first application of the disinfection method with ozone was performed. To do so, the ozonation equipment was inserted into the irrigation system and the parameters of said equipment were adjusted in order to achieve ozonated water with at least 2 ppm of dissolved ozone. Subsequently, the soil was left to rest for 30 min and the tomato plants, Lycopersicum esculentum, were transplanted. Subsequently, a second application of the disinfection method with ozone was performed in the same conditions indicated previously and, after letting the treated soil rest for 30 min, the microorganism formula (1) was inoculated.
In order to analyse the effect of the treatment on the disinfection of the soil, samples were taken at different depths (20 cm, 40 cm and 60 cm) and on different dates, and the microbial load in each of the samples was analysed.
In this section the data obtained is described. As explained in the assay protocol, soil samples were taken at different depths (20 cm, 40 cm and 60 cm) and quality controls were performed quantifying the number of pathogenic fungi and bacteria present.

[3] = tested on: tomato plants, Lycopersicum esculentum; test: Phytotoxicity and plant development of tomato plants transplanted into treated soil; assay type: in vivo
Protocol: Afterwards, as mentioned earlier, once the first disinfection was finished, tomato seedlings were transplanted into the bins in order to evaluate the “residual effect” of the treatment. Subsequently, the study of the plant development of the plants was performed.
After the first application of the disinfection method, on 19 Sep. 2014, 2 tomato plants were transplanted per container. The residual effect of the ozone was evaluated.
Throughout the assay, the parameters evaluated were: • Flow rate and ppm ozone at the outlet. • Microbial evaluation of the soil (t=0; t=7 days and t=30 days). • Relationship of the depth with the possible fungicidal effect. • Having established the tomato plants, it was evaluated if the treatments caused phytotoxicity.
The parameters that will be observed in the crop will be the appearance of necrosis and burning on leaves and fruits. • Plant development of the crop.
After the first application of the treatment with ozone, 2 tomato plants were transplanted into each of the containers. The growth of the plants was evaluated for three months, ending the analysis of this parameter on 2 January due to frost in the area (see FIGS. 5a and 5b).

nematodes (Meloidogyne) = test: Disinfection of nematodes in Padrón pepper crop (greenhouse); assay type: in vivo, Meloidogyne sp.
Protocol: On a 500 m^2 surface of a greenhouse, with a water consumption of 3000 l/h, the disinfection with ozone was performed at a dose of 6 ppm, revising with the REDOX readings that a reading of 1000 mV is obtained in the farthest drip emitters, starting from a value of 185 mV in the irrigation water without ozone.
When the treatment ends, the inoculation of the microorganism formula (1) is performed (see example 1). Seven days after performing the treatment, samples of earth are taken to see the level of nematode infestation, observing a decrease of 90% of the population.

nematodes = test: Evolution of nematodes in soil after ozone treatment and inoculation of microorganisms; assay type: in vivo; conditions: 5.5 ppm of ozone for 2 hours; before treatment 480 juveniles/100 cc of earth
microorganisms = conditions: cited from earlier work
coliform bacteria = conditions: cited from earlier work
[4] = cited from earlier work

In the case of O=[O+][O-] [ozone], the “reduction of pathogenic fungi” value ([1]; application 1, 24 hours after application, depth 20 cm) is reported as 100%, the “reduction of pathogenic fungi” value ([1]; application 1, 24 hours after application, depth 60 cm) is reported as 100% and the “reduction of pathogenic fungi” value ([1]; application 2, depth 20 cm) is reported as 100%. For the same compound, the “fungi present a month after application” value ([1]; application 2, depth 20 cm, 30 days) was “traces of fungi appearing a month later”, the “reduction of pathogenic fungi” value ([1]; application 2, depth 40 cm, effect prolonged for 30 days) was 100% and the “reduction of pathogenic fungi” value ([1]; application 2, depth 60 cm, effect prolonged for 30 days) was 100%. For the same compound, the “disinfection against the phytopathogenic fungi tested” value ([1]; overall result of the soil assays, ozonated water at least 2 ppm) was 100%, the “mortality of pathogenic mesophilic bacteria” value ([2]; after first application of ozonated water) was “less than 50%” and the “reduction of pathogenic mesophilic bacteria” value ([2]; after second application) was 50%. For the same compound, the “reduction of pathogenic mesophilic bacteria” value ([2]; after second application, listed as ozonated water) was “at least 50%”, the “reduction of populations of pathogenic bacteria compared with control” value ([2]; application 1, all depths tested except 60 cm) was “less than 50%” and the “completeness of reduction of pathogenic bacteria” value ([2]; application 2) was “the reduction was not complete”. The “reduction of pathogenic mesophilic bacteria” value ([2]; second application, depth 60 cm) was 60%, the “plant development of tomato plants” value ([3]; plants transplanted after first application into infected, treated soil) was “vigorous plant development” and the “phytotoxicity: growth and plant development” value ([3]; three months after the transplant) was “normal growth and plant development”. For the same compound, the “Meloidogyne sp. after the disinfection” value (nematodes (Meloidogyne); ozonated irrigation, crop in full production, before disinfection 88 juveniles/100 cc soil) was 8 juveniles/1 cc soil, the “decrease of the nematode population” value (nematodes (Meloidogyne); ozone 6 ppm, then inoculation of microorganism formula (1), soil samples seven days after treatment) was 90% and the “presence of juveniles after the treatment with ozone” value (nematodes) was 44 /100 cc of earth. For the same compound, the “application period necessary for disinfection” value (microorganisms) was 5 s, the “time needed in order to eliminate microorganisms” value (microorganisms) was “four” and the “time to kill 99% of 60,000 coliform bacteria/ml” value (coliform bacteria) was 2.8 s. The “useful life of ozone” value ([4]; water temperature of 15° C.) was 30 min, the “useful life of ozone” value ([4]; water temperature of 25° C.) was 15 min and the “time until degradation of the ozone into oxygen” value ([4]; water without organic matter, pH of 7, water temperature of 15° C.) was “about 30 minutes”.
